Data taken from paper PMC11284788, “NN1213 – A Potent, Long-Acting, and Selective Analog of Human Amylin” (Journal of Medicinal Chemistry, 2024).
Where two headings read alike, the source gives them in different places. Numbered stars: 1 amine (or outer) side, 2 acyl side, 3 side chain; on linkers, the order of the positions; unused ones are H or OH. Bridge positions count the residues as written; N and C are the ends. Side chains are listed from the residue outwards. Peptide text beside a SMILES is read from it. * marks the point of attachment. C20 diacid = O=C(O)CCCCCCCCCCCCCCCCCCC(=O)*; γGlu = O=C(O)[C@H](CCC(=O)[*:2])N[*:1]

Tests used:
hCTR = target: T1, hCTR (Homo sapiens, UniProt P30988); assay: cAMP-responsive element luciferase reporter assay, human CTR; format: cell-based; conditions: luciferase (human receptor assay)
T1 sequence (P30988 25-474): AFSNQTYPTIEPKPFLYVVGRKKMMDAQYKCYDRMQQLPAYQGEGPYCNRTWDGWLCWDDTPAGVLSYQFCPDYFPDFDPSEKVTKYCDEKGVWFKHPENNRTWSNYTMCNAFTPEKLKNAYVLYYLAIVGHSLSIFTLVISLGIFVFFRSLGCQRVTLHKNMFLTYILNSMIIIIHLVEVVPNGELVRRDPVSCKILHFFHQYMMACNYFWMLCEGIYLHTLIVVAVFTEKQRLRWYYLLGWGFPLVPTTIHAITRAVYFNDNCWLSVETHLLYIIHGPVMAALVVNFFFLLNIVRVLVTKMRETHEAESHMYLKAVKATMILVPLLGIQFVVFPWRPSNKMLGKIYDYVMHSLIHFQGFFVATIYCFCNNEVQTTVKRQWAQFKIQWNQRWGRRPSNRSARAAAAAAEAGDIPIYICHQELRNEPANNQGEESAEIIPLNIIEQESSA

rat AMY3R = target: T2, rat AMY3R (Rattus norvegicus, UniProt P32214+Q9JJ73); assay: cAMP FlashPlate assay, rat AMY3R; format: cell-based; conditions: for EC50: cAMP (rat receptor assay); for ratio rCTR/rAMY3R: ratio of cAMP EC50 values
T2 construct: expressed in transfected cells; host or cells: BHK tk-ts 13, transient co-transfection (FuGENE 6)
T2 sequence (P32214 25-479 isoform P32214-2 limits assumed): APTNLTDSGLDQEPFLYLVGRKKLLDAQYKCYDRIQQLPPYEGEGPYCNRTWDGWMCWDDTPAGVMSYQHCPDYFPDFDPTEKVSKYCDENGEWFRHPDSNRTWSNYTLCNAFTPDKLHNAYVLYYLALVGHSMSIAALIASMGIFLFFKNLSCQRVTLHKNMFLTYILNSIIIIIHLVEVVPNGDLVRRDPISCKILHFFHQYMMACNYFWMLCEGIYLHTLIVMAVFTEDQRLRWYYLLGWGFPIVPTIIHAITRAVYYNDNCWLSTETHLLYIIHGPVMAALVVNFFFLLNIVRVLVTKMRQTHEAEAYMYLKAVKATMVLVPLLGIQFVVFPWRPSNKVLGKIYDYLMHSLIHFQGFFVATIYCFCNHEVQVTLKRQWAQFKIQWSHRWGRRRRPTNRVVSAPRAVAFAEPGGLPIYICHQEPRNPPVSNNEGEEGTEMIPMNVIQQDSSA
T2 sequence (Q9JJ73 23-147 partner): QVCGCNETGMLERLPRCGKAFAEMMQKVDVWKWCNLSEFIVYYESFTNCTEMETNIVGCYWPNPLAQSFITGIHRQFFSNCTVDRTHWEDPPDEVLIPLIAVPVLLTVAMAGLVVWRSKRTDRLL

rAMY3R = target: T3, rAMY3R (Rattus norvegicus, UniProt P32214+Q9JJ73); assay: scintillation proximity binding assay, rAMY3R membranes; set-up: expressed in transfected cells; host or cells: BHK tk-ts 13, transient co-transfection (FuGENE 6); conditions: for ratio rCTR/rAMY3R: ratio of binding IC50 values
T3 sequence (P32214 25-479 isoform P32214-2 limits assumed): T2 sequence (P32214 25-479 isoform P32214-2 limits assumed)
T3 sequence (Q9JJ73 23-147 partner): T2 sequence (Q9JJ73 23-147 partner)
Protocol: The apparent binding affinities were determined using a scintillation proximity assay with beads from PerkinElmer and cell membranes containing the AMY3R or CTRs. […] Membranes were harvested and membranes were prepared and kept at −80 °C until use. The assay was performed in a 384-well Optiplate (PerkinElmer). Membranes were mixed with scintillation proximity assay beads in a 1:1 ratio. […] Samples were analyzed on a TopCounter (Packard). The IC50 values were calculated using GraphPad Prism. See Supporting Information S7: SAR Screening Assay Methods (Binding Assays (Human and Rat)) for more information.
Binding Assays (Human and Rat). Brief descriptions of the methods used to determine binding affinities for SAR analysis are described below. Curves and IC50 values were plotted and calculated in GraphPad Prism using nonlinear regression (one site binding competition analysis), with pIC50 values […]
values were used to calculate the binding affinity ratios in order to express the selectivity of compounds for the AMY3R versus the CTR.
CTR Binding Assay. The binding assay was performed using scintillation proximity assay (SPA) beads (RPNQ0001) from PerkinElmer and cell membranes containing either the hCTR or rCTR. BHK […]
(§1) Membranes were prepared in the following way: the cells were rinsed with PBS and incubated with Versene for approximately 5 min before harvesting. The cells were flushed with PBS and the cell-suspension was centrifuged for 5 min at 1000 rpm. Cells were homogenized (Ultra Turrax) in a buffer […]
containing 20 mM Na-HEPES and 0.1 mM EDTA (pH 7.4, buffer 2). The resulting pellet was re-suspended in buffer 2 and protein concentration was measured (BCA protein assay, Pierce). The homogenate was kept cold during the whole procedure. The membranes were stored at –80 °C until […]
The binding assay was performed in a 384-well Optiplate (PerkinElmer) in a total volume of 40 μL.
Membranes were mixed with SPA beads in a 1:1 ratio. […]
mg/well. Test compounds were dissolved in DMSO and further diluted in assay buffer (50 mM HEPES, pH 7.4, 1 mM CaCl2, 5 mM MgCl2, 0.1% ovalbumin, and 0.02% Tween-20).
Calcitonin (NEX422 PerkinElmer) was dissolved in assay buffer and added to the Optiplate at a final […]
prior to centrifugation (1500 rpm, 10 min). Samples were analyzed on TopCounter (Packard).
AMY3R Binding Assay. The binding assay was performed using SPA beads (RPNQ0001) from PerkinElmer and cell membranes containing either the hAMY3R or rAMY3R. BHK tk-ts 13 cells were […]
as §1, with “and cultured as described above. Membranes” for “Membranes”, “buffer containing 20 mM Na-HEPES and 10 mM EDTA (pH 7.4), and” for “buffer”
The resulting pellet was re-suspended, homogenized, and
7.4, buffer 2). The resulting pellet was re-suspended in buffer 2 and protein concentration was measured (BCA protein assay, Pierce). The homogenate was kept cold during the whole procedure.
The membranes were stored at –80 °C until use.
Membranes were mixed with SPA beads in a 1:1 ratio. The final concentration of SPA beads was 0.05 mg/well. Test compounds were dissolved in DMSO and further diluted in assay buffer (50 mM […]
rAMY (NEX448 PerkinElmer) was dissolved in assay buffer and added to the Optiplate at a final

[1] = Tables S12 and S14, read-out: hCTR pEC50 (converted)
[2] = BHK cells stably expressing hCTR and CRE-luciferase, 3 h, 37 °C, 10% FBS, read-out: hCTR EC50
[3] = Tables S12 and S14, read-out: rAMY3R pEC50 (converted)
[4] = transiently transfected BHK tk-ts 13 cells, FlashPlate, 30 min room temperature, 2% HSA, read-out: rAMY3R EC50
[5] = SPA binding assay, Tables S13 and S15, read-out: rAMY3R pIC50 (converted)
[6] = SPA, BHK cell membranes, 125I-rat amylin, 120 min 25 °C, read-out: rAMY3R IC50

| EC50 (hCTR; [1]) | EC50 (hCTR; [2]) | EC50 (rat AMY3R; [3]) | EC50 (rat AMY3R; [4]) | ratio rCTR/rAMY3R (rat AMY3R) | IC50 (rAMY3R; [5]) | IC50 (rAMY3R; [6]) | ratio rCTR/rAMY3R (rAMY3R) | SMILES |
| --- | --- | --- | --- | --- | --- | --- | --- | --- |
| 2 nM | 1.99 nM | 1.29 nM | 1.29 nM | 13 | 1.17 nM | 1.17 nM | 44 | CC[C@H](C)[C@H](NC(=O)[C@H](C)NC(=O)CNC(=O)[C@H](Cc1ccccc1)NC(=O)[C@H](CC(N)=O)NC(=O)[C@@H]1CCCN1C(=O)[C@H](CO)NC(=O)[C@H](CO)NC(=O)[C@H](Cc1c[nH]cn1)NC(=O)[C@H](CCCNC(=N)N)NC(=O)[C@H](CC(C)C)NC(=O)[C@H](Cc1ccccc1)NC(=O)[C@H](CC(N)=O)NC(=O)[C@H](C)NC(=O)[C@H](CC(C)C)NC(=O)[C@H](CCCNC(=N)N)NC(=O)[C@H](CCC(N)=O)NC(=O)[C@@H](NC(=O)[C@H](C)NC(=O)[C@@H]1CSSC[C@H](NC(=O)[C@H](CCCCN)NC(=O)CC[C@H](NC(=O)CCCCCCCCCCCCCCCCCCC(=O)O)C(=O)O)C(=O)N[C@@H](CC(N)=O)C(=O)N[C@@H]([C@@H](C)O)C(=O)N[C@@H](C)C(=O)N[C@@H]([C@@H](C)O)C(=O)N1)[C@@H](C)O)C(=O)N1CCC[C@H]1C(=O)N[C@@H](CO)C(=O)N[C@@H](CO)C(=O)N[C@H](C(=O)N1CCC[C@H]1C(=O)N[C@H](C(=O)NCC(=O)N[C@@H](CO)C(=O)N[C@@H](CCC(=O)O)C(=O)N[C@H](C(=O)N[C@@H](Cc1ccc(O)cc1)C(N)=O)[C@@H](C)O)C(C)C)[C@@H](C)O [Peptide 11] ({C20 diacid-γGlu}-KCNTATCATQRLANFLRHSSPNFGAIPSSTPVGSETY-NH2; disulfide 2-7) |
| 2.51 nM | 2.49 nM | 0.933 nM | 0.926 nM | 18 | 1.29 nM | 1.29 nM | 39 | CC[C@H](C)[C@H](NC(=O)[C@H](C)NC(=O)CNC(=O)[C@H](Cc1ccccc1)NC(=O)[C@H](CC(N)=O)NC(=O)[C@@H]1CCCN1C(=O)[C@H](CO)NC(=O)[C@H](CO)NC(=O)[C@H](Cc1c[nH]cn1)NC(=O)[C@H](CCCNC(=N)N)NC(=O)[C@H](CC(C)C)NC(=O)[C@H](Cc1ccccc1)NC(=O)[C@H](CC(N)=O)NC(=O)[C@H](C)NC(=O)[C@H](CC(C)C)NC(=O)[C@H](CCCNC(=N)N)NC(=O)[C@H](CCC(N)=O)NC(=O)[C@@H](NC(=O)[C@H](C)NC(=O)[C@@H]1CSSC[C@H](NC(=O)[C@H](CCCCN)NC(=O)CC[C@H](NC(=O)CCCCCCCCCCCCCCCCCCC(=O)O)C(=O)O)C(=O)N[C@@H](CC(N)=O)C(=O)N[C@@H]([C@@H](C)O)C(=O)N[C@@H](C)C(=O)N[C@@H]([C@@H](C)O)C(=O)N1)[C@@H](C)O)C(=O)N1CCC[C@H]1C(=O)N[C@@H](CO)C(=O)N[C@@H](CO)C(=O)N[C@H](C(=O)N[C@@H](CC(N)=O)C(=O)N[C@H](C(=O)NCC(=O)N[C@@H](Cc1c[nH]cn1)C(=O)N[C@@H](CC(N)=O)C(=O)N[C@H](C(=O)N[C@@H](Cc1ccc(O)cc1)C(N)=O)[C@@H](C)O)C(C)C)[C@@H](C)O [Peptide 17] |
| – | – | – | – | 1338 | – | – | 447 | CC[C@H](C)[C@H](NC(=O)[C@H](C)NC(=O)CNC(=O)[C@H](Cc1ccccc1)NC(=O)[C@H](CC(N)=O)NC(=O)[C@@H]1CCCN1C(=O)[C@H](CO)NC(=O)[C@H](CO)NC(=O)[C@H](Cc1c[nH]cn1)NC(=O)[C@H](CCCNC(=N)N)NC(=O)[C@H](CC(C)C)NC(=O)[C@H](Cc1ccccc1)NC(=O)[C@H](CC(=O)O)NC(=O)[C@H](C)NC(=O)[C@H](CC(C)C)NC(=O)[C@H](CCCNC(=N)N)NC(=O)[C@H](CCC(N)=O)NC(=O)[C@@H](NC(=O)[C@H](C)NC(=O)[C@@H]1CSSC[C@H](NC(=O)[C@@H](N)CCCCNC(=O)CC[C@H](NC(=O)CC[C@H](NC(=O)CCCCCCCCCCCCCCCCCCC(=O)O)C(=O)O)C(=O)O)C(=O)N[C@@H](CC(N)=O)C(=O)N[C@@H]([C@@H](C)O)C(=O)N[C@@H](C)C(=O)N[C@@H]([C@@H](C)O)C(=O)N1)[C@@H](C)O)C(=O)N1CCC[C@H]1C(=O)N[C@@H](CO)C(=O)N[C@@H](CO)C(=O)N[C@H](C(=O)N[C@@H](CC(N)=O)C(=O)N[C@H](C(=O)NCC(=O)N[C@@H](CO)C(=O)N[C@@H](CC(=O)O)C(=O)N[C@H](C(=O)N[C@@H](Cc1ccc(O)cc1)C(N)=O)[C@@H](C)O)C(C)C)[C@@H](C)O [Peptide 6] (H-K([γGlu-γGlu-C20 diacid])CNTATCATQRLADFLRHSSPNFGAIPSSTNVGSDTY-NH2; disulfide 2-7) |
